Assay results: patent US10793580B2, “Substituted pyrazoloazepin-8-ones and their use as phosphodiesterase inhibitors” (LEO Pharma A/S, priority 2016, dated 2020)

Target: human PDE4D catalytic domain (Homo sapiens (Human), UniProt Q08499)
Assay: PDE4 Assay (TR-FRET, FAM-cAMP cleavage)
Assay type: biochemical
Details: Table 17, Examples 297-316; read-out: PDE4 IC50 range
Method in brief: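 Readout is Tb-to-FAM time-resolved FRET after nanoparticle capture of AMP, the product of cleaving a cAMP/FAM-cAMP mixture by PDE4D catalytic domain (S380-L740) in the presence of titrated compound. Values are IC50 ranges in nM: concentration halving substrate cleavage relative to controls.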

Chain of human PDE4D catalytic domain (Q08499 380-740): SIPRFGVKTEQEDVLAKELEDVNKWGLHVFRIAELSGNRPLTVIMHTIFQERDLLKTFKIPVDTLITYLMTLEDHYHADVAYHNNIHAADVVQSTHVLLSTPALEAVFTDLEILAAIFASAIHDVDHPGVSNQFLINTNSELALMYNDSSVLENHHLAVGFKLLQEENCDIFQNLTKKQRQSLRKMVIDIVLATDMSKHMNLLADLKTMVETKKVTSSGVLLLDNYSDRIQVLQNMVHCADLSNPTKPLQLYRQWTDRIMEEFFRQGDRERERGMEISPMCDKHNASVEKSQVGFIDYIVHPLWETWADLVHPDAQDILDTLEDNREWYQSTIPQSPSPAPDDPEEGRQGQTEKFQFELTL

Compound | IC50
CCn1nc(CC(C)(C)COC(=O)c2cc(C)n(C)n2)c2c1C(=O)NCC1(CCOCC1)C2 [Example 309, [3-(1-ethyl-8-oxo-spiro[6,7-dihydro-4H-pyrazolo[3,4-c]azepine-5,4′-tetrahydro-pyran]-3-yl)-2,2-dimethyl-propyl] 1,5-dimethylpyrazole-3-carboxylate] | < 100 nM
CCn1nc(CC(C)(C)COC(=O)c2csc(C)n2)c2c1C(=O)NCC1(CCOCC1)C2 [Example 310, [3-(1-ethyl-8-oxo-spiro[6,7-dihydro-4H-pyrazolo[3,4-c]azepine-5,4′-tetrahydro-pyran]-3-yl)-2,2-dimethyl-propyl] 2-methylthiazole-4-carboxylate] | < 100 nM
CCn1nc(CC(C)(C)COC(=O)c2cnc(C)s2)c2c1C(=O)NCC1(CCOCC1)C2 [Example 311, [3-(1-ethyl-8-oxo-spiro[6,7-dihydro-4H-pyrazolo[3,4-c]azepine-5,4′-tetrahydropyran]-3-yl)-2,2-dimethyl-propyl] 2-methylthiazole-5-carboxylate] | < 100 nM
CCn1nc(CC(C)(C)COC(=O)C2CCN(C)CC2)c2c1C(=O)NCC1(CCOCC1)C2 [Example 312, [3-(1-ethyl-8-oxo-spiro[6,7-dihydro-4H-pyrazolo[3,4-c]azepine-5,4′-tetrahydropyran]-3-yl)-2,2-dimethyl-propyl] 1-methylpiperidine-4-carboxylate] | 100 to 500 nM
CCn1nc(CC(C)(C)COC(=O)c2cc(C)nc(C)c2)c2c1C(=O)NCC1(CCOCC1)C2 [Example 313, [3-(1-ethyl-8-oxo-spiro[6,7-dihydro-4H-pyrazolo[3,4-c]azepine-5,4′-tetrahydropyran]-3-yl)-2,2-dimethyl-propyl] 2,6-dimethylpyridine-4-carboxylate] | < 100 nM
CCn1nc(CC(C)(C)COC(=O)C2CCN(C(C)=O)CC2)c2c1C(=O)NCC1(CCOCC1)C2 [Example 314, [3-(1-ethyl-8-oxo-spiro[6,7-dihydro-4H-pyrazolo[3,4-c]azepine-5,4′-tetrahydropyran]-3-yl)-2,2-dimethyl-propyl] 1-acetylpiperidine-4-carboxylate] | < 100 nM
CCn1nc(CC(C)(C)COC(=O)C2CCN(C(=O)OC)CC2)c2c1C(=O)NCC1(CCOCC1)C2 [Example 315, [3-(1-ethyl-8-oxo-spiro[6,7-dihydro-4H-pyrazolo[3,4-c]azepine-5,4′-tetrahydro-pyran]-3-yl)-2,2-dimethyl-propyl] 1-methoxycarbonyl-peridine-4-carboxylate] | < 100 nM
CCn1nc(CC(C)(C)COC(=O)C2CCN(C(=O)N(C)C)CC2)c2c1C(=O)NCC1(CCOCC1)C2 [Example 316, [3-(1-ethyl-8-oxo-spiro[6,7-dihydro-4H-pyrazolo[3,4-c]azepine-5,4′-tetrahydro-pyran]-3-yl)-2,2-dimethyl-propyl] 1-(dimethylcarbamoyl)-piperidine-4-carboxylate] | < 100 nM
